Assay results reported in patent US20090215893A1, “Parakeratosis inhibitor, pore-shrinking agent,or rough skin preventing/ameliorating agent, and external composition for skin” (Shiseido Company Ltd, priority 2005, published 2009).

Experiments:
[1] = test system: back of hairless mice (HR-1), 10 mass % oleic acid applied; assay: Inhibiting effect against rough skin induced by oleic acid application (transepidermal water loss); assay type: in vivo; set-up: ΔTEWL value: unit not given here; conditions: for ΔTEWL value: three days, average of four animals, rough skin worse as value increases, control 12.0; for ΔTEWL value compared with the control aqueous solution / rough skin preventing/ameliorating effect: summary of Table 3, concentrations as in Table 3
Method: In order to investigate the inhibiting effect of α-amino acid derivatives and salts thereof against rough skin induced by oleic acid application, the transepidermal water loss (TEWL value) before and after application was measured, the difference was compared with the control (control aqueous solution), and the effect was determined. Sample preparation and the application method were in accordance with Example 1. The TEWL was determined using the TM210 TEWA Meter (Courage+Khazaka Electronic GmBH).
100 μL of 10 mass % oleic acid (solvent: ethanol) was applied to the back of hairless mice (HR-1, four mice per group). Then a sample solution (α-amino acid derivatives, and the like) was applied 100 μL at a time. This procedure was continued for three days. The following day, the TEWL value of the back was determined and the values of the four animals were averaged. Rough skin became worse as the ΔTEWL value increased.

[2] = test system: cheek of a panel of 20 women; assay: Sensory irritation tests; assay type: in vivo, human; conditions: for Evaluation (sensory irritation, class of average rating): 1 mL on cheek, evaluated for ten minutes, 20 women; for sensory irritation: summary of Table 4, β-alanine at 3%
Method: 1 mL of a control aqueous solution and the sample aqueous solution prepared in Example 1 were applied using a cotton swab to the left or right cheek, respectively, of a panel of 20 women, the irritating sensation was evaluated every 30 seconds for ten minutes beginning immediately after application, and a final evaluation was reported. The evaluation of the irritating sensation was based on the following four steps of rating criteria, the average rating was calculated, and the average was classified by the following criteria.
3: Discontinued because of extremely strong irritation, such as stinging sensation, burning sensation, tickling sensation, itching, and the like.
2: Intolerable strong irritation, such as stinging sensation, burning sensation, tickling sensation, itching, and the like.
1: Tolerable with only slight stinging sensation, burning sensation, tickling sensation, itching, and the like.
0: Not particularly irritating.
A: average rating of less than 0.2
B: average rating of 0.2 to less than 1.0
C: average rating of 1.0 to less than 2.0
D: average rating of 2.0 or greater

[3] = test system: back of a hairless mouse (HR-1), 10 mass % oleic acid applied; assay: Parakeratosis-inhibiting effect tests: oleic acid applied to hairless mouse back, macroscopic rough skin evaluation and parakeratosis value; assay type: in vivo; conditions: for Macroscopic evaluation (average of four animals): 100 μL after oleic acid, three days, rough skin score 0.0 (no redness) to 2.0 (control); for Parakeratosis value (average of four animals): tape-stripped stratum corneum, hematoxylin, range 1.0 to 3.0, higher = parakeratosis advanced, control 2.0; for parakeratosis value / parakeratosis-inhibiting effect / rough skin preventing effect, based on stratum corneum peeling and redness: summary of Table 1, concentrations as in Table 1
Method: Aqueous solutions (containing 30 mass % of ethanol) of primarily 3 mass % of an α-amino acid derivative or salt thereof were prepared as the evaluation sample. The pH was regulated by hydrochloric acid or sodium hydroxide so as to be 7.0 to 7.5. When sample solubility was low, the solution was prepared accordingly.
100 μL of 10 mass % oleic acid solution (solvent: ethanol) were applied to the back of a hairless mouse (HR-1; Hoshino Laboratory Animals). Then the sample solution (α-amino acid derivative, and the like) was applied 100 μL at a time. This procedure was continued for three days. […] The status of the skin was evaluated in 0.25-point intervals, with skin where the control (control aqueous solution) had been applied being 2.0 and skin where there was no redness being 0.0. At the same time, the stratum corneum at the back of the hairless mouse was peeled off with tape, the nuclei were stained by hematoxylin, and the degree of parakeratosis was observed and evaluated by a parakeratosis value within a range of 1.0 to 3.0 (in 0.25 increments).

[4] = test system: pores of the cheeks of healthy human males; assay: Human pore-shrinking effect (replica assessment of cheek pores); assay type: in vivo; conditions: for Replica assessment (average of n = 5): twice a day for one month, pore size rating 1-13, after application minus before application, control 0.3; for pore-shrinking effect: summary of Table 2, concentrations as in Table 2
Method: An experiment was conducted whereby a sample was applied twice a day for one month to the cheeks of healthy human males in groups of 5 men each. Aqueous solutions (containing 15 mass % of ethanol) of 3 mass % of the α-amino acid derivative or a salt thereof were prepared as the evaluation sample. The pH was regulated by hydrochloric acid or sodium hydroxide so as to be 7.0 to 7.5. When sample solubility was low, the solution was prepared accordingly. The control was an aqueous 15% ethanol solution. The sample aqueous solution and control aqueous solution were applied to one half of the face at a time.
A replica was collected before and after continuous application, and changes in the shape of the pores at the same site were observed using a three-dimensional laser scanning microscope. The size of the pores was macroscopically evaluated in 13 steps of 1 through 13 (with the pores becoming larger as the numbers became larger), the difference in the ratings before and after application (after application-before application) was calculated, and the efficacy of each sample was studied using this difference as the replica assessment.

O=C(O)CNC1CCCCC1 [N-cyclohexyl-glycine]
ΔTEWL value ([1]; sample 3 mass %): 6.4 | ΔTEWL value compared with the control aqueous solution / rough skin preventing/ameliorating effect [1]: significantly lower | Evaluation (sensory irritation, class of average rating) ([2]; sample 3 mass %): A (average rating of less than 0.2) | sensory irritation [2]: no problems | Macroscopic evaluation (average of four animals) ([3]; sample 3 mass %): 1.2 | Parakeratosis value (average of four animals) ([3]; sample 3 mass %): 1.1 | parakeratosis value / parakeratosis-inhibiting effect [3]: reduced | rough skin preventing effect, based on stratum corneum peeling and redness [3]: seen | Replica assessment (average of n = 5) ([4]; sample 3 mass %): −1.5 | pore-shrinking effect [4]: seen

CNC(C)C(=O)O (racemic) [N-methyl-DL-alanine]
ΔTEWL value ([1]; sample 3 mass %): 8.1 | ΔTEWL value compared with the control aqueous solution / rough skin preventing/ameliorating effect [1]: significantly lower | Evaluation (sensory irritation, class of average rating) ([2]; sample 3 mass %): A (average rating of less than 0.2) | sensory irritation [2]: no problems | Macroscopic evaluation (average of four animals) ([3]; sample 3 mass %): 1.4 | Parakeratosis value (average of four animals) ([3]; sample 3 mass %): 1.4 | parakeratosis value / parakeratosis-inhibiting effect [3]: reduced | rough skin preventing effect, based on stratum corneum peeling and redness [3]: seen | Replica assessment (average of n = 5) ([4]; sample 3 mass %): −0.9 | pore-shrinking effect [4]: seen

CN[C@H](C)C(=O)O [N-methyl-D-alanine]
ΔTEWL value ([1]; sample 3 mass %): 8.2 | ΔTEWL value compared with the control aqueous solution / rough skin preventing/ameliorating effect [1]: significantly lower | Evaluation (sensory irritation, class of average rating) ([2]; sample 3 mass %): A (average rating of less than 0.2) | sensory irritation [2]: no problems | Macroscopic evaluation (average of four animals) ([3]; sample 3 mass %): 1.2 | Parakeratosis value (average of four animals) ([3]; sample 3 mass %): 1.3 | parakeratosis value / parakeratosis-inhibiting effect [3]: reduced | rough skin preventing effect, based on stratum corneum peeling and redness [3]: seen | Replica assessment (average of n = 5) ([4]; sample 3 mass %): −0.7 | pore-shrinking effect [4]: seen

C[C@H](NC(=O)OCc1ccccc1)C(=O)O [N-carbobenzoyloxy-L-alanine]
ΔTEWL value ([1]; sample 3 mass %): 6.9 | ΔTEWL value compared with the control aqueous solution / rough skin preventing/ameliorating effect [1]: significantly lower | Evaluation (sensory irritation, class of average rating) ([2]; sample 3 mass %): A (average rating of less than 0.2) | sensory irritation [2]: no problems | Macroscopic evaluation (average of four animals) ([3]; sample 3 mass %): 1.2 | Parakeratosis value (average of four animals) ([3]; sample 3 mass %): 1.3 | parakeratosis value / parakeratosis-inhibiting effect [3]: reduced | rough skin preventing effect, based on stratum corneum peeling and redness [3]: seen | Replica assessment (average of n = 5) ([4]; sample 3 mass %): −0.9 | pore-shrinking effect [4]: seen

O=C(O)[C@@H](CO)NC1CCCCC1 [N-cyclohexyl-D-serine]
ΔTEWL value ([1]; sample 3 mass %): 6.8 | ΔTEWL value compared with the control aqueous solution / rough skin preventing/ameliorating effect [1]: significantly lower | Evaluation (sensory irritation, class of average rating) ([2]; sample 3 mass %): A (average rating of less than 0.2) | sensory irritation [2]: no problems | Macroscopic evaluation (average of four animals) ([3]; sample 3 mass %): 1.3 | Parakeratosis value (average of four animals) ([3]; sample 3 mass %): 1.2 | parakeratosis value / parakeratosis-inhibiting effect [3]: reduced | rough skin preventing effect, based on stratum corneum peeling and redness [3]: seen | Replica assessment (average of n = 5) ([4]; sample 3 mass %): −1.3 | pore-shrinking effect [4]: seen

CN[C@@H](CO)C(=O)O [N-methyl-L-serine]
ΔTEWL value ([1]; sample 3 mass %): 7.9 | ΔTEWL value compared with the control aqueous solution / rough skin preventing/ameliorating effect [1]: significantly lower | Evaluation (sensory irritation, class of average rating) ([2]; sample 3 mass %): A (average rating of less than 0.2) | sensory irritation [2]: no problems | Macroscopic evaluation (average of four animals) ([3]; sample 3 mass %): 1.3 | Parakeratosis value (average of four animals) ([3]; sample 3 mass %): 1.2 | parakeratosis value / parakeratosis-inhibiting effect [3]: reduced | rough skin preventing effect, based on stratum corneum peeling and redness [3]: seen | Replica assessment (average of n = 5) ([4]; sample 3 mass %): −1.2 | pore-shrinking effect [4]: seen

C[C@@H](NC1CCCCC1)C(=O)O [N-cyclohexyl-D-alanine]
ΔTEWL value ([1]; sample 3 mass %): 6.9 | ΔTEWL value compared with the control aqueous solution / rough skin preventing/ameliorating effect [1]: significantly lower | Evaluation (sensory irritation, class of average rating) ([2]; sample 3 mass %): A (average rating of less than 0.2) | sensory irritation [2]: no problems | Macroscopic evaluation (average of four animals) ([3]; sample 3 mass %): 1.3 | Parakeratosis value (average of four animals) ([3]; sample 3 mass %): 1.4 | parakeratosis value / parakeratosis-inhibiting effect [3]: reduced | rough skin preventing effect, based on stratum corneum peeling and redness [3]: seen | Replica assessment (average of n = 5) ([4]; sample 3 mass %): −1.3 | pore-shrinking effect [4]: seen

O=C(O)CNS(=O)(=O)c1ccccc1 [N-benzenesulfonyl-glycine]
ΔTEWL value ([1]; sample 3 mass %): 6.9 | ΔTEWL value compared with the control aqueous solution / rough skin preventing/ameliorating effect [1]: significantly lower | Evaluation (sensory irritation, class of average rating) ([2]; sample 3 mass %): A (average rating of less than 0.2) | sensory irritation [2]: no problems | Macroscopic evaluation (average of four animals) ([3]; sample 3 mass %): 1.2 | Parakeratosis value (average of four animals) ([3]; sample 3 mass %): 1.2 | parakeratosis value / parakeratosis-inhibiting effect [3]: reduced | rough skin preventing effect, based on stratum corneum peeling and redness [3]: seen | Replica assessment (average of n = 5) ([4]; sample 3 mass %): −1.3 | pore-shrinking effect [4]: seen

CCN[C@H](C)C(=O)O [N-ethyl-D-alanine]
ΔTEWL value ([1]; sample 3 mass %): 8.3 | ΔTEWL value compared with the control aqueous solution / rough skin preventing/ameliorating effect [1]: significantly lower | Evaluation (sensory irritation, class of average rating) ([2]; sample 3 mass %): A (average rating of less than 0.2) | sensory irritation [2]: no problems | Macroscopic evaluation (average of four animals) ([3]; sample 3 mass %): 1.6 | Parakeratosis value (average of four animals) ([3]; sample 3 mass %): 1.7 | parakeratosis value / parakeratosis-inhibiting effect [3]: reduced | rough skin preventing effect, based on stratum corneum peeling and redness [3]: seen | Replica assessment (average of n = 5) ([4]; sample 3 mass %): −0.5 | pore-shrinking effect [4]: seen

CNC(CO)C(=O)O (racemic) [N-methyl-DL-serine]
ΔTEWL value ([1]; sample 3 mass %): 8.0 | ΔTEWL value compared with the control aqueous solution / rough skin preventing/ameliorating effect [1]: significantly lower | Evaluation (sensory irritation, class of average rating) ([2]; sample 3 mass %): A (average rating of less than 0.2) | sensory irritation [2]: no problems | Macroscopic evaluation (average of four animals) ([3]; sample 3 mass %): 1.2 | Parakeratosis value (average of four animals) ([3]; sample 3 mass %): 1.2 | parakeratosis value / parakeratosis-inhibiting effect [3]: reduced | rough skin preventing effect, based on stratum corneum peeling and redness [3]: seen | Replica assessment (average of n = 5) ([4]; sample 3 mass %): −0.7 | pore-shrinking effect [4]: seen

CC(NC(=O)OCc1ccccc1)C(=O)O (racemic) [N-carbobenzoyloxy-DL-alanine]
ΔTEWL value ([1]; sample 3 mass %): 6.6 | ΔTEWL value compared with the control aqueous solution / rough skin preventing/ameliorating effect [1]: significantly lower | Evaluation (sensory irritation, class of average rating) ([2]; sample 3 mass %): A (average rating of less than 0.2) | sensory irritation [2]: no problems | Macroscopic evaluation (average of four animals) ([3]; sample 3 mass %): 1.3 | Parakeratosis value (average of four animals) ([3]; sample 3 mass %): 1.2 | parakeratosis value / parakeratosis-inhibiting effect [3]: reduced | rough skin preventing effect, based on stratum corneum peeling and redness [3]: seen | Replica assessment (average of n = 5) ([4]; sample 3 mass %): −1.0 | pore-shrinking effect [4]: seen

C[C@@H](NS(=O)(=O)c1ccccc1)C(=O)O [N-benzenesulfonyl-D-alanine]
ΔTEWL value ([1]; sample 1.5 mass %): 7.0 | Evaluation (sensory irritation, class of average rating) ([2]; sample 1.5 mass %): A (average rating of less than 0.2) | Macroscopic evaluation (average of four animals) ([3]; sample 1.5 mass %): 1.3 | Parakeratosis value (average of four animals) ([3]; sample 1.5 mass %): 1.4 | Replica assessment (average of n = 5) ([4]; sample 1.5 mass %): −1.2
